System: A2B5+ OPCs
Assay: OPC differentiation assay
Format: cell-based, Sprague Dawley rats
Conditions: 3-day incubation; for activity in the OPC assay at 2 micromolar / activity in the OPC assay at 20 micromolar: symbols not defined in the patent; for EC50: Rattus norvegicus, 72 h, MSD analysis
Protocol: OPC Differentiation Assay
Enriched populations of oligodendrocytes were grown from post-natal day 2 (P2) female Sprague Dawley rats. The forebrain was dissected out and placed in Hank's buffered saline solution (HBSS; Invitrogen, Grand Island, N.Y.). The tissue was cut into 1 mm fragments and incubated at 37° C. for 15 minutes in 0.01% trypsin and 10 μg/mL DNase. Dissociated cells were plated on poly-L-lysine-coated T75 tissue culture flasks and grown at 37° C. for 10 days in Dulbecco's modified Eagle's medium (DMEM) with 20% fetal calf serum (Invitrogen). A2B5^+ OPCs were collected by shaking the flask overnight at 200 rpm and 37° C., resulting in a 95% pure population.
For the differentiation assay, 2 μM and 20 μM antagonist or the same concentrations of vehicle (DMSO) were applied to OPCs cultured in CNTF/T3 containing media. After a 3-day incubation, […], cell were lysed and then subjected to MSD (Meso Scale Discovery-R) analysis. EC50 was calculated by Prism using a nonlinear sigmoidal dose-response curvecells. Alternatively, cells were lysed in 80 μL lysis buffer (50 mM HEPES [4-(2-hydroxyethyl)-1-piperazineethanesulfonic acid], pH 7.5, 150 mM NaCl, 1.5 mM MgCl2, 1 mM ethylene glycol tetraacetic acid [EGTA], 1% Triton X-100 and 10% glycerol) for 30 minutes at 4° C. After centrifugation at 14,000 g for 15 minutes, the supernatants were boiled in Laemmli sample buffer, subjected to 4-20% SDS-PAGE, and analyzed by Western blotting with anti-MBP, anti-myelin-associated glycoprotein (MAG), or anti-beta actin antibodies. The secondary antibodies used were anti-mouse IgG-HRP (horseradish peroxidase) and anti-rabbit IgG-HRP respectively.

With CCCCC1CCC(Oc2ccc3cc(CN4CCC(C(=O)O)CC4)ccc3c2)CC1 (mixture of isomers) [Example 32, 1-((6-(4-Butylcyclohexyloxy)naphthalen-2-yl)methyl)piperidine-4-carboxylic acid] the “activity in the OPC assay at 2 micromolar” value (“activity … at 2 micromolar” for short) was “+ to ++++”, the “activity in the OPC assay at 20 micromolar” value (“activity … at 20 micromolar” for short) was “+ to ++++” and the EC50 was less than 10 µM.

For CC(C)(C)[C@H]1CC[C@H](Oc2ccc3nc(CN4CCC(C(=O)O)CC4)ncc3c2)CC1 [Example 15, 1-((6-(trans-4-tert-Butylcyclohexyloxy)quinazolin-2-yl)methyl)piperidine-4-carboxylic acid], the “activity … at 2 micromolar” value was “+ to ++++”.

CC(C)(C)[C@H]1CC[C@H](Oc2ccc3cc(C(N4CCC(C(=O)O)CC4)C(F)(F)F)ccc3c2)CC1 (stereo partly drawn) [Example 22, 1-(1-(6-(trans-4-tert-Butylcyclohexyloxy)naphthalen-2-yl)-2,2,2-trifluoroethyl)piperidine-4-carboxylic acid] was tested, and the “activity … at 2 micromolar” value was “+ to ++++”, the “activity … at 20 micromolar” value was “+ to ++++” and the EC50 was less than 10 µM.

CC(C)C1CCC(Oc2ccc3cc(CN4CCC(C(=O)O)CC4)ccc3c2)CC1 (centres unmarked) [Example 24, 1-((6-(4-Isopropylcyclohexyloxy)naphthalen-2-yl)methyl)piperidine-4-carboxylic acid] showed an EC50 of less than 10 µM.

With CC(C)(C)[C@H]1CC[C@@H](Oc2ccc3cc(CN4CCC(C(=O)O)CC4)ccc3c2)CC1 [Example 26, 1-((6-(cis-4-tert-Butylcyclohexyloxy)naphthalen-2-yl)methyl)piperidine-4-carboxylic acid] the “activity … at 20 micromolar” value was “+ to ++++” and the EC50 was less than 10 µM.

CCC1CCC(Oc2ccc3cc(CN4CCC(C(=O)O)CC4)ccc3c2)CC1 (centres unmarked) [Example 30, 1-((6-(4-Ethylcyclohexyloxy)naphthalen-2-yl)methyl)piperidine-4-carboxylic acid] was tested, and the “activity … at 2 micromolar” value was “+ to ++++”, the “activity … at 20 micromolar” value was “+ to ++++” and the EC50 was less than 10 µM.

For O=C(O)C1CCN(Cc2ccc3cc(OC4CCC5(CCCC5)CC4)ccc3c2)CC1 [Example 34, 1-((6-(Spiro[4.5]decan-8-yloxy)naphthalen-2-yl)methyl)piperidine-4-carboxylic acid], the “activity … at 20 micromolar” value was “+ to ++++”.

With CC[C@H]1CC[C@@H](Oc2ccc3cc(CN4CCC(C(=O)O)CC4)ccc3c2)CC1 [Example 36, 1-((6-(cis-4-Ethylcyclohexyloxy)naphthalen-2-yl)methyl)piperidine-4-carboxylic acid] the “activity … at 2 micromolar” value was “+ to ++++” and the “activity … at 20 micromolar” value was “+ to ++++”.

With CC[C@H]1CC[C@H](Oc2ccc3cc(CN4CCC(C(=O)O)CC4)ccc3c2)CC1 [Example 38, 1-((6-(trans-4-Ethylcyclohexyloxy)naphthalen-2-yl)methyl)piperidine-4-carboxylic acid] the “activity … at 20 micromolar” value was “+ to ++++”.

CC(C)(C)[C@H]1CC[C@H](Oc2ccc3nc(CN4CCC(C(=O)O)CC4)ccc3c2)CC1 [Example 42, 1-((6-(trans-4-tert-Butylcyclohexyloxy)quinolin-2-yl)methyl)piperidine-4-carboxylic acid] was tested, and the “activity … at 2 micromolar” value was “+ to ++++”, the “activity … at 20 micromolar” value was “+ to ++++” and the EC50 was less than 10 µM.

With CC(C)(C)[C@H]1CC[C@H](Oc2ccc3cc(C(=O)N4CCC(C(=O)O)CC4)ccc3c2)CC1 [Example 48, 1-(6-(trans-4-tert-Butylcyclohexyloxy)-2-naphthoyl)piperidine-4-carboxylic acid] the “activity … at 2 micromolar” value was “+ to ++++” and the “activity … at 20 micromolar” value was “+ to ++++”.

For CC(C)(C)C1CCC(=Cc2ccc3cc(CN4CCC(C(=O)O)CC4)ccc3c2)CC1 (centres unmarked) [Example 52, 1-((6-((4-tert-Butylcyclohexylidene)methyl)naphthalen-2-yl)methyl)piperidine-4-carboxylic acid], the “activity … at 20 micromolar” value was “+ to ++++”.

In the case of CC(C)(C)[C@H]1CC[C@H](Oc2ccc3cc(CN4CCC(C(=O)O)CC4)ccc3n2)CC1 [Example 55, 1-((2-(trans-4-tert-Butylcyclohexyloxy)quinolin-6-yl)methyl)piperidine-4-carboxylic acid], the “activity … at 2 micromolar” value is reported as “+ to ++++”.

With CCC1(C(=O)O)CCN(Cc2ccc3cc(O[C@H]4CC[C@H](C(C)(C)C)CC4)ccc3c2)CC1 [Example 56, 1-[6-(4-tert-Butyl-cyclohexyloxy)-naphthalen-2-ylmethyl]-4-ethyl-piperidine-4-carboxylic acid] the “activity … at 2 micromolar” value was “+ to ++++”.

With CCCC1(C(=O)O)CCN(Cc2ccc3cc(O[C@H]4CC[C@H](C(C)(C)C)CC4)ccc3c2)CC1 [Example 57, 1-[6-(4-tert-Butyl-cyclohexyloxy)-naphthalen-2-ylmethyl]-4-propyl-piperidine-4-carboxylic acid] the “activity … at 2 micromolar” value was “+ to ++++” and the “activity … at 20 micromolar” value was “+ to ++++”.

CC1CN(Cc2ccc3cc(O[C@H]4CC[C@H](C(C)(C)C)CC4)ccc3c2)CCC1C(=O)O (some centres unmarked) [Example 58, 1-[6-(4-tert-Butyl-cyclohexyloxy)-naphthalen-2-ylmethyl]-3-methyl-piperidine-4-carboxylic acid] was tested, and the “activity … at 2 micromolar” value was “+ to ++++”, the “activity … at 20 micromolar” value was “+ to ++++” and the EC50 was less than 10 µM.

In the case of CC(C)(C)[C@H]1CC[C@H](Oc2ccc3cc(CN4CCC(C(=O)O)(c5ccccc5)CC4)ccc3c2)CC1 [Example 59, 1-[6-(4-tert-Butyl-cyclohexyloxy)-naphthalen-2-ylmethyl]-4-phenyl-piperidine-4-carboxylic acid], the “activity … at 2 micromolar” value is reported as “+ to ++++”.

With CC(C)(C)[C@H]1CC[C@H](Oc2ccc3cc(CN4CCCC(C(=O)O)CC4)ccc3c2)CC1 (some centres unmarked) [Example 60, 1-[6-(4-tert-Butyl-cyclohexyloxy)-naphthalen-2-ylmethyl]-perhydro-azepine-4-carboxylic acid] the “activity … at 2 micromolar” value was “+ to ++++” and the EC50 was less than 10 µM.

In the case of CC(C)(C)[C@H]1CC[C@H](Oc2ccc3cc(CN4CCC(O)(C(=O)O)CC4)ccc3c2)CC1 [Example 61, 1-[6-(4-tert-Butyl-cyclohexyloxy)-naphthalen-2-ylmethyl]-4-hydroxy-piperidine-4-carboxylic acid], the “activity … at 2 micromolar” value is reported as “+ to ++++”, the “activity … at 20 micromolar” value is reported as “+ to ++++” and the EC50 is reported as less than 10 µM.

In the case of CC(C)(C)[C@H]1CC[C@H](Oc2ccc3cc(CN4CCC(CC(=O)O)CC4)ccc3c2)CC1 [Example 62, {1-[6-(4-tert-Butyl-cyclohexyloxy)-naphthalen-2-ylmethyl]-piperidin-4-yl}-acetic acid], the “activity … at 2 micromolar” value is reported as “+ to ++++” and the “activity … at 20 micromolar” value is reported as “+ to ++++”.

CC(C)(C)[C@H]1CC[C@H](Oc2ccc3cc(CN4CCC(C(=O)O)CC4)ncc3c2)CC1 [Example 75, 1-[7-(trans-4-tert-Butyl-cyclohexyloxy)-isoquinolin-3-ylmethyl]-piperidine-4-carboxylic acid] was tested, and the “activity … at 2 micromolar” value was “+ to ++++” and the “activity … at 20 micromolar” value was “+ to ++++”.

For CC1(C(=O)O)CCN(Cc2ccc3cc(O[C@H]4CC[C@H](C(C)(C)C)CC4)ccc3c2)CC1 [Example 77, 1-((6-(trans-4-tert-Butylcyclohexyloxy)naphthalen-2-yl)methyl)-4-methylpiperidine-4-carboxylic acid], the “activity … at 2 micromolar” value was “+ to ++++”, the “activity … at 20 micromolar” value was “+ to ++++” and the EC50 was less than 10 µM.

O=C(O)C1CCN(Cc2ccc3cc(OC4CCCCCC4)ccc3c2)CC1 [Example 81, 1-((6-(cycloheptyloxy)naphthalen-2-yl)methyl)piperidine-4-carboxylic acid] was tested, and the “activity … at 20 micromolar” value was “+ to ++++”.

For O=C(O)C1CCN(Cc2ccc3cc(OC4CCOCC4)ccc3c2)CC1 [Example 83, 1-((6-(tetrahydro-2H-pyran-4-yloxy)naphthalen-2-yl)methyl)piperidine-4-carboxylic acid], the “activity … at 2 micromolar” value was “+ to ++++” and the “activity … at 20 micromolar” value was “+ to ++++”.

In the case of O=C(O)C1CCN(Cc2ccc3cc(OC4CCC5(CCCCC5)CC4)ccc3c2)CC1 [Example 85, 1-((6-(spiro[5.5]undecan-3-yloxy)naphthalen-2-yl)methyl)piperidine-4-carboxylic acid], the “activity … at 2 micromolar” value is reported as “+ to ++++” and the “activity … at 20 micromolar” value is reported as “+ to ++++”.

For O=C(O)C1CCN(Cc2ccc3cc(OC4CCC5(CCC5)CC4)ccc3c2)CC1 [Example 87, 1-((6-(spiro[3.5]nonan-7-yloxy)naphthalen-2-yl)methyl)piperidine-4-carboxylic acid], the “activity … at 20 micromolar” value was “+ to ++++”.

For CC(C)(C)[C@H]1CC[C@H](Oc2ccc3cc(CN4CCCCC4C(=O)O)ccc3c2)CC1 (some centres unmarked) [Example 88, 1-[6-(4-tert-Butyl-cyclohexyloxy)-naphthalen-2-ylmethyl]-piperidine-2-carboxylic acid], the “activity … at 2 micromolar” value was “+ to ++++”.

From patent publication US10894040B2, “S1P modulating agents” (BIOGEN MA INC., priority 2011, dated 2021)
